Measured values published in patent US20160082036A1, “HYDROXYALKYL STARCH FOR THE TREATMENT OF CANCERS BY REDUCTION OF TUMOR GROWTH RATES” (Fresenius Kabi Deutschland GmbH, priority 2012, published 2016).

Tests used:
[1] = test system: human breast cell carcinoma line MT-3; experiment: Example 1: MT-3 xenograft tumor growth after single i.v. injection; type: in vivo
Method: Summary: Mice were either treated with a single i.v. injection of docetaxel (Taxotere®) at a dose of 25 mg/kg or with the plasma expander Voluven® (20 ml/kg) or with “HES 100/1.0” (approx. 740 mg/kg) dissolved in saline to determine tumor growth and body weight over the course of the experiment.
Docetaxel (available under the name Taxotere®) was obtained from Sanofi-Aventis Deutschland GmbH, (Lot CHB D9C895; Berlin, Germany) and was stored in the dark at −20° C. until use. […] “HES 100/1.0” (as specified in table 2 above) was dissolved in saline.
(§1) The final solution of docetaxel was prepared immediately before injection by mixing an appropriate volume of the original stock solution provided by Sanofi (20 mg/ml) with saline (0.9% NaCl, B. Braun Melsungen AG, Melsungen, Germany) as indicated in table 4 below. Saline was mixed with absolute ethanol to obtain an approx. 6.25% solution, the original vehicle of Taxotere®. Voluven® was used in the original formulation described above.
(§2) Adult female NMRI:nu/nu mice (TACONIC Europe, Lille Skensved, Denmark) bred in the own (EPO) colony were used throughout the study.
The MT-3 cell line was used for subcutaneous (s.c.) xenotransplantation in immune deficient female NMRI:nu/nu mice. […]
On study day 0 each 5×10^6 tumor cells were transplanted s.c. into the flank of each mouse. The animals were monitored for tumor growth and when tumors were palpable, generally between day 7 and day 10 after transplantation, mice were randomised into the treatment groups. […]
Individual tumor diameters were measured two times weekly with a calliper. Tumor volumes were calculated according to V=(length×(width)^2)/2. […] At each measurement day the median and mean tumor volumes per group and also the treated to control (T/C RTV) values in percent were calculated. […]

[2] = test system: human breast cell carcinoma line MT-3; experiment: Example 2: MT-3 xenograft tumor growth after single i.v. injection; type: in vivo
Method: Summary: Mice were either treated with a single i.v. injection of docetaxel (Taxotere®) at a dose of 25 mg/kg or with the plasma expander Voluven® (20 ml/kg) or with HES 100/1.0 (approx. 740 mg/kg) dissolved in saline/EtOH to determine tumor growth and body weight over the course of the experiment.
Docetaxel (available under the name Taxotere®) was obtained from Sanofi-Aventis Deutschland GmbH, (Lot CHB D9C895; Berlin, Germany) and was stored in the dark at −20° C. until use. […] HES 100/1.0 (as specified in table 2 above) was dissolved in saline/EtOH.
as §1, with “indicated in the table 6” for “indicated in table 4”, “the table 6 below. Saline” for “in table 4 below. Saline”
as §2
The MT-3 cell line was used for subcutaneous (s.c.) xenotransplantation in immune deficient female NMRI:nu/nu mice. The MT-3 breast carcinoma cell line was obtained from the tumor bank of the National Cancer Institute of the former USSR, WONZ, Moscow (Naundorf H. Rewasowa E. Fichtner I et al. Characterization of two human mammary carcinomas, MT-1 and MT-3, suitable for in vivo testing of ether lipids and their derivatives. Breast Cancer Res Treat. 1992; 23:87-95).
The cells are cryo-preserved within the EPO tumor bank. Cells were thawed, expanded by in vitro culture and transplanted s.c. as cell suspension (5×10^6 tumor cells/mouse in 200 μl).
On study day 0 each 5×10^6 tumor cells were transplanted s.c. into the flank of each mouse. The animals were monitored for tumor growth and when tumors were palpable, about day 7 after inoculation, mice were randomised into the treatment groups.
The application volume was 10 ml/kg (approx. 200 μl/20 g mouse) mouse body weight for vehicle, HES 100/1.0 and docetaxel and 20 ml/kg for Voluven®. The route of administration was by intravenous (i.v.) injection into the tail vein.
Individual tumor diameters were measured two times weekly with a calliper. Tumor volumes were calculated according to V=(length×(width)^2)/2. For calculation of the relative tumor volume (RTV) the tumor volumes at each measurement day were related to the day of first treatment. At each measurement day the median and mean tumor volumes per group and also the treated to control (T/C RTV) values in percent were calculated.
Mice were sacrificed when tumors reached a mean size above 1 cm^3 per group. On the day of necropsy mice were sacrificed by cervical dislocation and inspected for gross organ changes.
Statistical evaluation of was performed with the U-test of Mann and Whitney using the Windows program […] 6. A significance level of p<0.05 was used.

[3] = single i.v. dose at day 7 after inoculation, MT-3 s.c. in NMRI:nu/nu mice, in cm3 (unit assumed)

CC(=O)O[C@@]12CO[C@@H]1C[C@H](O)[C@@]1(C)C(=O)[C@H](O)C3=C(C)[C@@H](OC(=O)[C@H](O)[C@@H](NC(=O)OC(C)(C)C)c4ccccc4)C[C@@](O)([C@@H](OC(=O)c4ccccc4)[C@H]21)C3(C)C [Docetaxel]
Tumor volume (mean) at day 34 [1, 3]: 0.930 ± 0.395 | Tumor volume (mean) nadir [1, 3]: 0.072 ± 0.047 | inhibition of tumor growth (in words) ([1]; single i.v. treatment, compared to control group, FIG. 4): significant inhibition of tumor growth | tumor size at day 8 ([2]; day 8 after inoculation (day of dosing)): 0.0866 cm^3 | Tumor volume (mean) cm^3/day 25 ([2]; single i.v. dose at day 8 after inoculation): 0.343 cm^3 | tumor size at day 10 ([2]; single i.v. dose day 8): 0.1046 cm^3 | tumor size at day 15 ([2]; single i.v. dose day 8): 0.1228 cm^3 | tumor size at day 18 ([2]; single i.v. dose day 8): 0.1995 cm^3 | tumor size at day 22 ([2]; single i.v. dose day 8): 0.2465 cm^3 | tumor size at day 25 ([2]; single i.v. dose day 8): 0.3430 cm^3 | inhibition of tumor growth (in words) ([2]; single i.v. treatment, compared to control group, table 8, FIG. 2): significant inhibition of tumor growth
